A value given as a limit tells only on which side of the number the result lay.

By Ki is commonly meant the equilibrium dissociation constant of an inhibitor or competing ligand from its target. The low end stands for tighter binding, the high end for weaker binding.

Holding throughout (assay type): biochemical
Assay [1] addresses T1, human placental NOS (Homo sapiens, UniProt P29474).
T1 construct: Purification of NOS from human placenta; from tissue; host or cells: fresh human placenta, amnion and chorion removed; ammonium sulfate and 2',5' ADP agarose purified
As to the kind of experiment: Inhibition of human placental NOS (citrulline formation). The settings on record: 1 μM L-[14C] arginine; pH 7.4; calmodulin, CaCl2. The protocol:
It is noted that the NO synthase isolated from human placenta most probably represents the endothelial constitutive isoenzyme.
Purification of NOS from human placenta.
Amion and chorion were removed from fresh placenta, which was then rinsed with 0.9% NaCl. The tissue was homogenized in a Waring blender in 3 volumes of HEDS buffer (20 mM Hepes pH 7.8, 0.1 mM EDTA, 5 mM DTT, 0.2M sucrose) plus 0.1 mM PMSF.
The homogenate was filtered through cheesecloth and then centrifuged at 1000 g for 20 min. The supernatant was recentrifuged at 27500 g for 30 min. Solid ammonium sulfate was added to the supernatant to give 32% saturation. Precipitated protein was pelleted at 25,000 g and then redissolved in a minimal volume of HEDS buffer plus 0.1 mM PMSF, 10 μg/ml leupeptin and soybean trypsin inhibitor, and 1 μg/ml pepstatin. The redissolved pellet was centrigued at 15000 g for 10 min. To the supernatant was added 1/20 volume of 2',5' ADP agarose resin (Sigma), and the slurry was mixed slowly overnight. In morning, slurry was packed into a column. The resin was sequentially washed with HEDS, 0.5M NaCl in HEDS, HEDS, and then NOS was eluted with 10 mM NADPH in HEDS. The enzyme could be concentrated by ultrafiltration and quick frozen and stored at -70° C. without loss in activity for at least 6 months.
Assay for human placental NOS
(§1) NOS was assayed for the formation of citrulline following the procedure of Schmidt et al (PNAS 88 365-369, 1991) with these modifications: 20 mM Hepes, pH 7.4, 10 μg/ml calmodulin, 2.5 mM CaCl2 2.5 mM DTT, 125 μM NADPH 10 μM H4 Biopterin, 0.5 mg/ml BSA, and 1 μM L-[^14 C] arginine (New England Nuclear). Linearity of NOS-catalyzed rate was confirmed prior to kinetic studies that used single time point determination of rate.

Assay [2] deals with T2, human brain NOS (Homo sapiens, UniProt P29475).
T2 construct: Purification of NOS from human brain; from tissue; host or cells: frozen human brain; ammonium sulfate, 2',5' ADP-agarose, calmodulin-agarose
As to the kind of experiment: Inhibition of human brain NOS (citrulline formation). The settings on record: Schmidt et al. 1991 procedure, 10 μM tetrahydrobiopterin included. The protocol: Purification of NOS from human brain
Human brain NOS was prepared using variations of the procedures of Schmidt et al. (PNAS 88 365-369, 1991), Mayer et al. (Fed. Eur. Biochem. Soc. 288 187-191, 1991), and Bredt and Snyder, (PNAS 87 682-685, 1990). Briefly, frozen human brain (1050 gm) was homogenized in cold buffer A (50 mM HEPES, pH 7.5 (pH at RT) and 0.5 mM EDTA, 10 mM DTT, 3.6 L total volume) with a polytron. The mixture was centrifuged at 13,000 g for 1 hour and the supernatant was removed (about 2050 ml). To the supernatant, solid aimmonium sulfate (365 gm, about 30% of saturation) was added and stirred slowly for a total of 30 minutes. The precipitate was pelleted at 13,000 g for 30 minutes and the pellet was resuspended in ~400 mls of buffer A with 4 μM tetrahydrobiopterin, 1 μM FAD (Sigma), 1 μM FMN (Sigma). The solution was centrifuged at 41,000 g for 60 minutes. The supernatant was removed, frozen by pouring into liquid nitrogen, and stored overnight at -70° C. The mixture was thawed and passed through a 2',5' ADP-agarose column (0.4 g swelled in buffer A) at 4 ml/min. The column was washed with 100 ml buffer A, 200 ml buffer A with 500 mM NaCl, 100 ml Buffer A, then 30 ml buffer A with 5 mM NADPH. To the enzyme eluted from the column was added glycerol to 15%, CaCl2 to 1 mM, tetrahydrobiopterin to 10 μM, tween to 0.1% and FAD, FMN to 1 μM each. The enzyme was then passed through a 1 ml calmodulin-agarose column which had been equilibrated in Buffer A, 15% glycerol and 1 mM CaCl2. The column was washed with 15 ml Buffer A, 15% glycerol and 1 mM CaCl2, 15 ml of Buffer A, 15% glycerol and 5 mM EDTA, and then enzyme activity was eluted with 3 ml of Buffer A, 15% glycerol and 5 mM EDTA, 1 M NaCl. To the enzyme was added tetrahydrobiopterin to 10 μM, FAD and FMN to 1 μM, and tween to 0.1%. This solution was concentrated by centriprep-30 to a volume of approximately 500 μl. Human NOS was prepared completely analogously except the calmodulin-agarose column was not used. Enzyme activity was determined as described by Schmidt et al. 1991, except that 10 μM tetrahydrobiopterin was included in the assay.

Assay [3] has as its target T3, inducible human NOS (Homo sapiens, UniProt P35228).
T3 construct: Purification of NOS cytokine-induced human colorectal adenocarcinoma DLD-1 cells; host or cells: DLD-1 cells induced with interferon-gamma, interleukin-6, tumor necrosis factor and interleukin-1beta; 2',5' ADP Sepharose purified
Description: Inhibition of inducible human NOS (citrulline formation), enzyme from cytokine-induced DLD-1 cells. As to conditions: NOS from cytokine-induced DLD-1 cells; 1 μM L-[14C] arginine; pH 7.4; 10 μM FAD, no calmodulin/CaCl2. How it is done:
as §1
Purification of NOS cytokine-induced human colorectal adenocarcinoma DLD-1 cells.
DLD-1 (ATCC No. CCL 221) were grown at 37° C., 5% CO2 in RPMI 1640 medium supplemented with L- glutamin, penicillin, streptomycin, and 10% heat-inactivated fetal bovine serum. Cells were grown to confluency and then the following cocktail of cytokines were added: 100 units/ml interferon-gamma, 200 units/ml interleukin-6, 10 ng/ml tumor necrosis factor, and 0.5 ng/ml interieukin-1β. At 10-24 hr post-induction, cells were harvested by scraping and washed with phosphate-buffered saline. Pelleted cells were stored at -70° C. Purification of the induced NOS was performed at 4° C. Crude extract was prepared by three cycles of freeze/thawing cells in TDGB (20 mM tris pH 7.5, 10% glycerol, 1 mM DTT, 2 μM tetrahydrobiopterin). Extract was applied directly onto a column of 2',5' ADP sepharse (Pharmacia). Resin was sequentially washed with TDGB, 0.5 M NaCl in TDGB, TDGB. NOS was eluted with 2 mM NADPH in TDGB. BSA was immediately added to give a final concentration of 1 mg/ml. NOS could be quick frozen and stored at -70° C. without loss in activity for at least 2 months.
Assay for inducible human NOs.
The formation of citrulline was assayed as described above except that 10 μM FAD was included and calmodulin and CaCl2 were excluded from the assay mix.

For “4-Acetamido-DL-phenylalanine [Compound 15]”, the Ki in assay [1], in assay [2] and in assay [3] was over 50 µM in each case.
As for `CNC(=N)Nc1ccc(CC(N)C(=O)O)s1` (racemic) [Compound 1, 3-(5-N'-methylguanidino-2-thienyl)-DL-alanine], the Ki in assay [1] was at most 10 µM; in assay [2] it was at most 50 µM; in assay [3], over 50 µM.
For `N=C(N)Nc1ccc(CC(N)C(=O)O)s1` (racemic) [Compound 2, 3-(5-Guanidino-2-thienyl)-DL-alanine] the same measures were at most 50 µM, at most 10 µM and at most 50 µM.
For `NC(N)=Nc1ccccc1CC(N)C(=O)O` (racemic) [Compound 3, 2-Guanidino-DL-phenylalanine], in that order: at most 0.5 µM, at most 0.5 µM and at most 10 µM.
Consider `CCSC(=N)Nc1ccc(CC(N)C(=O)O)s1` (racemic) [Compound 4, 3-(5-S-ethylisothioureido-2-thienyl)-DL-alanine], for which the Ki in assay [1] is at most 10 µM; in assay [2], at most 50 µM; in assay [3], over 50 µM.
As for `N=C(Nc1ccc(CC(N)C(=O)O)s1)NC1CC1` (racemic) [Compound 5, 3-(5-N'-cyclopropylguanidino-2-thienyl)-DL-alanine], the inhibition constant Ki is at most 10 µM in assay [1], at most 10 µM in assay [2] and over 50 µM in assay [3].
As to `C=CCNC(=N)Nc1ccc(CC(N)C(=O)O)s1` (racemic) [Compound 6, 3-(5-N'-allylguanidino-2-thienyl)-DL-alanine], the Ki in assay [1], in assay [2] and in assay [3] was at most 10 µM each time.
Regarding `NC(=S)Nc1ccccc1CC(N)C(=O)O` (racemic) [Compound 7, 2-thioureido-DL-phenylalanine], the Ki in assay [1], in assay [2] and in assay [3] was at most 10 µM throughout.
Turning to `CSC(=N)Nc1ccccc1CC(N)C(=O)O` (racemic) [Compound 8, 2-(S-methylisothioureido)-DL-phenylalanine], the Ki is at most 1 µM in assay [1], at most 1 µM in assay [2] and at most 10 µM in assay [3].
In the case of `CCSC(=N)Nc1ccccc1CC(N)C(=O)O` (racemic) [Compound 9, 2-(S-ethylisothioureido)-DL-phenylalanine], the results for the inhibition constant (Ki) in assay [1], in assay [2] and in assay [3] were at most 0.5 µM, at most 0.5 µM and at most 1 µM, respectively.
As to `C/N=C(/N)Nc1ccccc1CC(N)C(=O)O` (racemic) [Compound 10, 2-(N'-methylguanidino)-DL-phenylalanine], the figures for the Ki in assay [1], in assay [2] and in assay [3] were at most 0.5 µM, at most 0.5 µM and at most 1 µM, respectively.
In the case of `NC(=NC1CC1)Nc1ccccc1CC(N)C(=O)O` (racemic) [Compound 11, 2-(N'-cyclopropylguanidino)-DL-phenylalanine], the Ki in assay [1] was at most 0.5 µM; in assay [2] it was at most 1 µM; in assay [3], at most 1 µM.
`N=C(N)Nc1cccc(CC(N)C(=O)O)c1` (racemic) [Compound 12, 3-guanidino-DL-phenylalanine]: the Ki in assay [1] is at most 50 µM; in assay [2] it was at most 50 µM; in assay [3] it was over 50 µM.
For the molecule `N=C(N)Nc1ccc(CC(N)C(=O)O)cc1` (racemic) [Compound 13, 4-Guanidino-DL-phenylalanine], the Ki in assay [1], in assay [2] and in assay [3] was over 50 µM in each case.
In the case of `CC(=N)Nc1cccc(CC(N)C(=O)O)c1` (racemic) [Compound 14, 3-acetamidino-DL-phenylalanine], the Ki in assay [1], in assay [2] and in assay [3] was over 50 µM throughout.
Consider `CNC(N)=Nc1cccc(CC(N)C(=O)O)c1` (racemic) [Compound 16, 3-N-methylguanidino-DL-phenylalanine], for which the Ki in assay [1] was at most 10 µM; in assay [2] it was at most 10 µM; in assay [3] it was over 50 µM.
As for `CNC(=N)Nc1ccc(CC(N)C(=O)O)cc1` (racemic) [Compound 17, 4-N-methylguanidino-DL-phenylalanine], the Ki in assay [1] is at most 50 µM; in assay [2], at most 50 µM; in assay [3], over 50 µM.
Consider `CC(=N)Nc1ccc(CC(N)C(=O)O)s1` (racemic) [Compound 18, 3-(5-(1-iminoethyl)amino)-2-thienyl)-DL-alanine], for which the Ki in assay [1] is at most 50 µM; in assay [2] it was at most 50 µM; in assay [3], at most 10 µM.
Take `CC(=N)Nc1ccccc1CC(N)C(=O)O` (racemic) [Compound 19, 2-((1-iminoethyl)amino)-DL-phenylalanine]: the Ki in assay [1] and in assay [3] was at most 10 µM in each case.
For `CNC(=N)NCc1ccc(CC(N)C(=O)O)s1` (racemic) [Compound 20, 3-(5-(N'-methylguanidino)methyl)-2-thienyl)-DL-alanine], the Ki in assay [1], in assay [2] and in assay [3] was over 50 µM in each case.
With `N=C(NCc1ccc(CC(N)C(=O)O)s1)NC1CC1` (racemic) [Compound 21, 3-(5-(N'-cyclopropylguanidino)methyl)-2-thienyl)-DL-alanine], the Ki in assay [1], in assay [2] and in assay [3] was over 50 µM in each case.
As for `CSC(=N)NCc1ccc(CC(N)C(=O)O)s1` (racemic) [Compound 22, 3-(5-((S-methylisothioureido)methyl)-2-thienyl-DL-alanine], the inhibition constant (Ki) in assay [1], in assay [2] and in assay [3] was over 50 µM each time.

The values are drawn from US5874472A, “Aminoacid derivatives as no synthase inhibitors” (Glaxo Wellcome Inc., priority 1993, dated 1999).
